# Test results taken from patent publication US20110152362A1, “METHODS OF TREATING EPILEPTOGENESIS AND EPILEPSY” (priority 2004, published 2011).
# Assays:
# [1] = test system: rats subjected to Li-pilo induced SE; test: Example 1: latency to and frequency of spontaneous recurrent seizures (SRS), lithium-pilocarpine model; format: in vivo, rat
# Method: The bilateral EEG cortical activity was recorded during the whole duration of SE and behavioral changes were noted.
# The effects of increasing doses of the Test Compound were studied on 3 groups of rats. The animals of the first group received 10 mg/kg of the test compound, i.p., 1 h after the onset of SE (pilo-TC10) while the animals of groups 2 and 3 received 30 and 60 mg/kg of the Test Compound (pilo-TC30 and pilo-TC60), respectively.
# The control group received saline instead of pilocarpine and the Test Compound (saline-saline). […] Pilo-DZP received a second injection of 1 mg/kg DZP on the day of SE at about 10 h after the first one. Thereafter, Pilo-DZP and saline-saline rats received twice daily an equivalent volume of saline.
# The effects of the test compound on the EEG and on the latency to occurrence of SRS were investigated by daily video recording of the animals for 10 h per day and the recording of the electrographic activity twice a week for 8 h.
# To calculate the frequency of SRS in pilocarpine-exposed rats, the seizure severity and distinguished stage III (clonic seizures of facial muscles and anterior limbs) and stage IV-V seizures (rearing and falling) was measured. The frequency of stage III SRS per week in pilo-DZP and pilo-test compound rats was variable amongst the groups. It was low, constant in the pilo-DZP and pilo-TC60 (with early SRS onset) groups during the first 3 weeks and had disappeared during the 4th week in the pilo-DZP group. […] The frequency of more severe stage IV-V SRS was highest during the first week in most groups, except pilo-TC30 and TC60 with late seizure onset where the SRS frequency was constant over the whole 4 weeks in TC30 group and over the first two weeks in the pilo-TC60 group with late SRS onset in which no stage IV-V seizures where no seizures recorded after the second week.
# [2] = Example 3 study 1: single oral dose pharmacokinetics in healthy men; format: in vivo, human
# Method: Two single-center, placebo-controlled, double-blind, ascending-dose studies were conducted in healthy men ≧18 and ≦45 yrs. In study 1 (N=70), subjects were randomly assigned to a single dose of Test Compound (TC) or placebo. Escalated doses were received as 100, 250, 400, 750, 1000, 1250, and 1500 mg. PK parameters were estimated from plasma and urine samples collected up to 3 days post dose. Study 2 (N=53) evaluated the PK of repeated doses of Test Compound (TC) in 4 dose groups (100, 250, 500, or 750 mg). Within each group, 12 subjects were assigned to q12h treatment with drug or placebo for 1 wk and were crossed over after a 14-day washout period. PK parameters were estimated from plasma and urine samples on days 1 and 7.
smiles,measurement,setting,value
NC(=O)OC[C@@H](O)c1ccccc1Cl [TC],rats in which occurrence of spontaneous seizures was delayed,[1]; TC 60 mg/kg (4 out of 11),36%
same,mean delay to epilepsy in subgroup vs other groups of animals,"[1]; TC 60 mg/kg, subgroup",about 9 fold longer
same,latency to SRS,"[1]; TC60, subgroup with latency similar to other groups (n=7)",17.6 ± 8.7 days
same,"latency to SRS, mean","[1]; TC60, subgroup with much longer delay (n=4)",149.8 ± 36.0 days
same,frequency of stage IV-V SRS,"[1]; first week, TC10, TC30 and TC60 (with early SRS onset) groups",2.3-6.1 SRS per week
same,frequency of stage III SRS,"[1]; pilo-TC10 group, weeks 3 and 4",significantly increased over pilo-DZP values
same,latency to SRS,[1]; pilo-TC10 rats,15.4 ± 5.1 days
same,latency to SRS,[1]; pilo-TC30 rats,18.9 ± 9.0 days
same,frequency of stage IV-V SRS,"[1]; weeks 2-4, pilo-TC60 group with early SRS onset",0.6-0.9 seizure per week
same,Tmax,"[2]; male, human, plasma, single oral dose 100-1500 mg, healthy men",1.3 to 2.7 h
same,half-life,"[2]; male, human, plasma, single oral dose 100-1500 mg, healthy men, read-out: Mean t1/2",11.5 to 13.9 h
same,Cmax and AUC0-∞ dose dependence,[2]; single dose over the range of 100-1500 mg,increased in proportion to dose
same,Mean CL/F,"[2]; single oral dose 100-1500 mg, healthy men",2.87 to 3.67 L/h
same,absorption following oral administration,"[2]; single oral dose, healthy men",rapidly absorbed
